Data from US20180216060A1, “METHODS AND MEANS FOR THE MODIFICATION OF CELL SURFACES” (ACADEMISCH ZIEKENHUIS LEIDEN (ALSO ACTING UNDER THE NAME OF …, priority 2015, published 2018).
pKd: −log10 of the molar value. Where a SMILES comes first, the peptide text is derived from it. Bridges are numbered along the chain shown (N, C = ends). [ ]: non-standard residue; d: D form. The star is where a group is joined. Adamantane1carbonyl = O=C(C12CC3CC(CC(C3)C1)C2)*; 2Nal = N[C@@H](Cc1ccc2ccccc2c1)C(=O)O; Cit = NC(=O)NCCC[C@H](N)C(=O)O

Key:
CXCR4 receptor = biological target: T1, CXCR4 receptor (Homo sapiens, UniProt P61073); assay: Flow cytometry competition with Ac-TZ14011-MSAP to determine receptor affinity (KD); assay type: binding; details: competition with Ac-TZ14011-MSAP (250 nM), MDA-GFP-CXCR4+ cells
T1 construct: expressed in transfected cells; host or cells: MDA-MB-231 human breast cancer cells (MDA-GFP-CXCR4+), gift of Dr. Gary Luker
Text: The necessity of a multivalent approach was studied by direct comparison between an entity comprising polymeric host functional groups (multivalent) and a monovalent host functional group. A genetically modified MDA-MB-231 human breast cancer cell line that has the Green Fluorescent Protein (GFP) directly coupled to the overexpressed CXCR4 receptor was used to study the interactions with CXCR4 positive cells. The CXCR4 chemokine receptor is over-expressed in the membrane of many human cancer cells, but CXCR4 also play a major role in the chemotaxis of stem cells. The cyclic peptide Ac-TZ14011 is often used to target this receptor and was also chosen here as the ligand. […] The binding strength between the receptor and the peptide was determined by competition with a previously reported modified Ac-TZ14011 derivative. […] The cells were then washed two times with 1% BSA in PBS, resuspended in 1% BSA in PBS and fluorescence of the reference compound was measured by using a BD FacsCanto™ II flow cytometer with APC-Cy7 settings. Live cells were gated on forward scatter and side scatter and 10000 viable cells were analyzed. […] The KD values were calculated by using the “Binding-Competitive, One site-Fit Ki” nonlinear regression equation of GraphPad Prism. […]
MDA-GFP-CXCR4+ cells were trypsinized (using 0.5% trypsin/EDTA, BD Biosciences) and counted. […]

[1] = Sensing: binding of functionalized cells to a glass slide coated with β-cyclodextrin; details: 1 h ligand incubation, 15 min on slide
Protocol: A glass slide was coated with β-cyclodextrin in a line of 400 micrometer wide. CXCR4 expressing cells (see previous examples) were incubated for 1 h with the ligand-guest compound Ac-TZ14011-Ad as discussed above and then added to the glass slide and incubated for 15 min. […] The conclusion of this experiment is that cells can be selectively found (and bound) within a solution by using the guest-host chemistry of the present invention. This enables one to purify (and at least to sense) particular types of cells within a solution and/or mixture of cells.

T1 sequence (P61073 whole entry): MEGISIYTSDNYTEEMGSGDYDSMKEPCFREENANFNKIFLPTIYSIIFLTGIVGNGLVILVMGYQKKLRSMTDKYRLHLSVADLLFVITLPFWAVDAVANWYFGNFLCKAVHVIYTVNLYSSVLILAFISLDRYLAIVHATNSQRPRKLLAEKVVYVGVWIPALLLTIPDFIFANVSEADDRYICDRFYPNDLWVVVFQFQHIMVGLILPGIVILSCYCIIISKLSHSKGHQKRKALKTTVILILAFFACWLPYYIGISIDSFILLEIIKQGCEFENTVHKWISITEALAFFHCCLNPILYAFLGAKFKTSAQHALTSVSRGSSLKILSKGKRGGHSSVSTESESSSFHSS

For `CC(=O)N[C@@H](CCCNC(=N)N)C(=O)N[C@@H](CCCNC(=N)N)C(=O)N[C@@H](Cc1ccc2ccccc2c1)C(=O)N[C@H]1CSSC[C@@H](C(=O)N[C@@H](CCCNC(=N)N)C(N)=O)NC(=O)[C@H](CCCNC(N)=O)NC(=O)[C@H](CCCNC(=N)N)NC(=O)[C@H](Cc2ccc(O)cc2)NC(=O)[C@@H]2CCCN2C(=O)[C@@H](CCCCNC(=O)C23CC4CC(CC(C4)C2)C3)NC(=O)[C@H](CCCNC(=N)N)NC(=O)[C@H](CCCNC(N)=O)NC(=O)[C@H](Cc2ccc(O)cc2)NC1=O` [Ac-TZ14011-Ad] (Ac-RR[2Nal]CY[Cit]R[dK](Adamantane1carbonyl)PYR[Cit]CR-NH2; disulfide 4-13), the pKd (CXCR4 receptor) was 7.25 and the “attachment of functionalized cells to the cyclodextrin coated area” value [1] was “preferentially attach”.
